Read-outs that look alike come from different tables or passages of the source.
Legend:
[1] = system: Key Grass and Sedge Weeds as well as Grass Crops; assay: Post-emergent Test II herbicidal activity (Table 6); format: in vivo; conditions: post-emergence, 336 h, application rate 140 g ai/ha
Protocol: (§1) Post-emergent Test II: Seeds or nutlets of the desired test plant species were planted in Sun Gro Metro-Mix® 360 planting mixture, which typically has a pH of 6.0 to 6.8 and an organic matter content of about 30 percent, in plastic pots with a surface area of 64 square centimeters. When required to ensure good germination and healthy plants, a fungicide treatment and/or other chemical or physical treatment was applied. The plants were grown for 7-21 d in a greenhouse with an approximate 15 h photoperiod which was maintained at about 23-29° C. during the day and 22-28° C. during the night. Nutrients and water were added on a regular basis and supplemental lighting was provided with overhead metal halide 1000-Watt lamps as necessary. The plants were employed for testing when they reached the first or second true leaf stage.
(§2) A weighed amount, determined by the highest rate to be tested, of each test compound was placed in a 25 mL glass vial and was dissolved in 4 mL of a 97:3 v/v mixture of acetone and DMSO to obtain concentrated stock solutions. […] The concentrated stock solutions obtained were diluted with 20 mL of an aqueous mixture containing acetone, water, isopropyl alcohol, DMSO. Atplus 411F crop oil concentrate, and Triton® X-155 surfactant in a 48.5:39:10:1.5:1.0:0.02 v/v ratio to obtain spray solutions containing the highest application rates. Additional application rates were obtained by serial dilution of 12 mL of the high rate solution into a solution containing 2 mL of 97:3 v/v mixture of acetone and DMSO and 10 mL of an aqueous mixture containing acetone, water, isopropyl alcohol, DMSO, Atplus 411F crop oil concentrate, and Triton X-155 surfactant in a 48.5:39:10:1.5:1.0:0.02 v/v ratio to obtain ½×, ¼×, ⅛× and 1/16× rates of the high rate. Compound requirements are based upon a 12 mL application volume at a rate of 187 liters per hectare (L/ha). Formulated compounds were applied to the plant material with an overhead Mandel track sprayer equipped with 8002E nozzles calibrated to deliver 187 L/ha over an application area of 0.503 square meters at a spray height of 18 inches (43 cm) above the average plant canopy height. Control plants were sprayed in the same manner with the solvent blank.
(§3) The treated plants and control plants were placed in a greenhouse as described above and watered by subirrigation to prevent wash-off of the test compounds. After 14 d, the condition of the test plants as compared with that of the untreated plants was determined visually and scored on a scale of 0 to 100 percent where 0 corresponds to no injury and 100 corresponds to complete kill.

[2] = system: Key Broadleaf Weed and Crop Species; assay: Post-emergent Test II herbicidal activity (Table 5); format: in vivo; conditions: post-emergence, 336 h, 140 g ai/ha, post-emergent, 14 days after application
Protocol: as §1, §2, §3

[3] = Triticum aestivum, TRZSS (wheat), read-out: Visual Growth Reduction (%) 14 Days After Application, TRZSS
[4] = CYPES: yellow nutsedge (Cyperus esculentus), read-out: Visual Growth Reduction (%) 14 Days After Application, CYPES
[5] = DIGSA: crabgrass (Digitaria sanguinalis), read-out: Visual Growth Reduction (%) 14 Days After Application, DIGSA
[6] = ECHCG: barnyardgrass (Echinochloa crus-galli), read-out: Visual Growth Reduction (%) 14 Days After Application, ECHCG
[7] = ORYSA: rice (Oryza sativa), read-out: Visual Growth Reduction (%) 14 Days After Application, ORYSA
[8] = SETFA: giant foxtail (Setaria faberi), read-out: Visual Growth Reduction (%) 14 Days After Application, SETFA
[9] = SORVU: grain sorghum (Sorghum vulgare), read-out: Visual Growth Reduction (%) 14 Days After Application, SORVU
[10] = ZEAMX: maize, corn (Zea mays), read-out: Visual Growth Reduction (%) 14 Days After Application, ZEAMX
[11] = ABUTH: velvetleaf (Abutilon theophrasti), read-out: Visual Growth Reduction (%) 14 Days After Application ABUTH
[12] = AMARE: redroot pigweed (Amaranthus retroflexus), read-out: Visual Growth Reduction (%) 14 Days After Application AMARE
[13] = BRSNN: oilseed-rape, canola (Brassica napus), read-out: Visual Growth Reduction (%) 14 Days After Application BRSNN
[14] = CHEAL: lambsquarters (Chenopodium album), read-out: Visual Growth Reduction (%) 14 Days After Application CHEAL
[15] = EPHHL: wild poinsettia (Euphorbia heterophylla), read-out: Visual Growth Reduction (%) 14 Days After Application EPHHL
[16] = HELAN: sunflower (Helianthus annuus), read-out: Visual Growth Reduction (%) 14 Days After Application HELAN
[17] = VIOTR: wild pansy (Viola tricolor), read-out: Visual Growth Reduction (%) 14 Days After Application VIOTR

SMILES | melting point [°C] | pest or weed control at 140 g/ha [1, 3] [%] | pest or weed control at 140 g/ha [1, 4] [%] | pest or weed control at 140 g/ha [1, 5] [%] | pest or weed control at 140 g/ha [1, 6] [%] | pest or weed control at 140 g/ha [1, 7] [%] | pest or weed control at 140 g/ha [1, 8] [%] | pest or weed control at 140 g/ha [1, 9] [%] | pest or weed control at 140 g/ha [1, 10] [%] | pest or weed control at 140 g/ha [2, 11] [%] | pest or weed control at 140 g/ha [2, 12] [%] | pest or weed control at 140 g/ha [2, 13] [%] | pest or weed control at 140 g/ha [2, 14] [%] | pest or weed control at 140 g/ha [2, 15] [%] | pest or weed control at 140 g/ha [2, 16] [%] | pest or weed control at 140 g/ha [2, 17] [%]
COC(=O)c1nc(-c2ccc(C#N)cc2)c(Cl)c(N)c1Cl [Compound 1] | 133.4 to 134.8 | 0 to 29 | 30 to 44 | 0 to 29 | 0 to 29 | 0 to 29 | 0 to 29 | 0 to 29 | 0 to 29 | 60 to 74 | 60 to 74 | 0 to 29 | 85 to 94 | 0 to 29 | 95 to 100 | 0 to 29
Nc1cc(-c2ccc(OC(F)F)cc2)nc(C(=O)O)c1Cl [Compound 10] | 170.4 to 172.1 | 60 to 74 | 0 to 29 | 75 to 84 | 85 to 94 | 0 to 29 | 95 to 100 | 75 to 84 | 60 to 74 | 95 to 100 | 95 to 100 | 60 to 74 | 75 to 84 | 95 to 100 | 85 to 94 | 0 to 29
N#Cc1ccc(-c2nc(C(=O)O)c(Cl)c(N)c2Cl)cc1 [Compound 14] | 178 to 179.7 | 0 to 29 | 0 to 29 | 0 to 29 | 0 to 29 | 0 to 29 | 0 to 29 | 0 to 29 | 0 to 29 | 0 to 29 | 0 to 29 | 0 to 29 | 95 to 100 | 0 to 29 | 95 to 100 | 0 to 29
COC(=O)c1nc(-c2ccc(OC(F)F)cc2)c(Cl)c(N)c1Cl [Compound 15] | 102.4 to 103.6 | 0 to 29 | 0 to 29 | 0 to 29 | 0 to 29 | 0 to 29 | 0 to 29 | 0 to 29 | 0 to 29 | 85 to 94 | 0 to 29 | 0 to 29 | 30 to 44 | 0 to 29 | 95 to 100 | 0 to 29
COc1c(N)nc(-c2ccc(C#N)cc2)nc1C(=O)O [Compound 25] | 185.2 to 186.1 | 0 to 29 | 0 to 29 | 0 to 29 | 0 to 29 | 0 to 29 | 0 to 29 | 0 to 29 | 0 to 29 | 0 to 29 | 0 to 29 | 0 to 29 | 0 to 29 | 0 to 29 | 0 to 29 | 0 to 29
COC(=O)c1nc(-c2ccc(OC(F)(F)F)cc2)nc(N)c1OC [Compound 30] | 122 to 123.6 | 0 to 29 | 0 to 29 | 0 to 29 | 0 to 29 | 0 to 29 | 0 to 29 | 0 to 29 | 0 to 29 | 45 to 59 | 0 to 29 | 0 to 29 | 0 to 29 | 95 to 100 | 0 to 29 | 0 to 29

The next lines start with results.

melting point [°C] | SMILES | pest or weed control at 140 g/ha [1, 3] [%] | pest or weed control at 140 g/ha [1, 4] [%] | pest or weed control at 140 g/ha [1, 5] [%] | pest or weed control at 140 g/ha [1, 6] [%] | pest or weed control at 140 g/ha [1, 7] [%] | pest or weed control at 140 g/ha [1, 8] [%] | pest or weed control at 140 g/ha [1, 9] [%] | pest or weed control at 140 g/ha [1, 10] [%] | pest or weed control at 140 g/ha [2, 11] [%] | pest or weed control at 140 g/ha [2, 12] [%] | pest or weed control at 140 g/ha [2, 13] [%] | pest or weed control at 140 g/ha [2, 14] [%] | pest or weed control at 140 g/ha [2, 15] [%] | pest or weed control at 140 g/ha [2, 16] [%] | pest or weed control at 140 g/ha [2, 17] [%]
146.3 to 147.6 | Nc1c(Cl)c(C(=O)O)nc(-c2ccc(OC(F)F)cc2)c1Cl [Compound 33] | 0 to 29 | 0 to 29 | 0 to 29 | 0 to 29 | 0 to 29 | 0 to 29 | 0 to 29 | 0 to 29 | 60 to 74 | 0 to 29 | 30 to 44 | 0 to 29 | 0 to 29 | 95 to 100 | 0 to 29
204.2 to 205.9 | C#Cc1ccc(-c2cc(N)c(Cl)c(C(=O)O)n2)cc1 [Compound 48] | 30 to 44 | 0 to 29 | 60 to 74 | 75 to 84 | 0 to 29 | 0 to 29 | 0 to 29 | 0 to 29 | 95 to 100 | 95 to 100 | 85 to 94 | 85 to 94 | 95 to 100 | 95 to 100 | 0 to 29
128 to 130 | COC(=O)c1nc(-c2ccc(Br)cc2)c(C)c(N)c1Cl [Compound 81, methyl 4-amino-6-(4-bromophenyl)-3-chloro-5-methylpicolinate] | 45 to 59 | 0 to 29 | 45 to 59 | 0 to 29 | 0 to 29 | 60 to 74 | 75 to 84 | 75 to 84 | 95 to 100 | 95 to 100 | 60 to 74 | 95 to 100 | 75 to 84 | 95 to 100 | 0 to 29
